From patent US20060035829A1, “Chemokine combinations to mobilize progenitor/stem cells” (AnorMED Inc., priority 2004, published 2006)

Experiments:
peripheral blood cells = test: Peripheral blood differential summary (complete blood counts, manual differentials); assay type: in vivo; settings: BALB/c mice
Description: Mobilization experiments were performed in BALB/c mice (3 mice group). For mobilization with AMD3100 or GROβ alone, PBSC mobilization was quantified at the peak of mobilization determined for either agent in previous experiments. Thus, PBSC mobilization was quantified at 15 mins following an s.c. injection of 2.5 mg/kg GROβ and at 1 hour following an s.c. injection of 5 mg/kg AMD3100.
In the combination experiment, PBSC mobilization was quantitated at 5, 15, 30, 60 and 150 minutes after a single subcutaneous injection of 2.5 mg/kg GROβ (R & D Systems) in saline and 5 mg/kg AMD3100. The compounds were injected separately and simultaneously at different s.c. sites. Injections were scheduled so that control and mobilized mice were evaluated at the same time in every experiment. Mice were killed by CO2 asphyxiation and blood was obtained by cardiac puncture using syringes coated with EDTA (ethylenediaminetetra acetic acid). PBMC's were obtained by separation of peripheral blood (0.4 mL) on Lympholyte-M (Cedarlane Labs, Hornby, ON, Canada). Complete blood counts (CBC's) were performed on a Hemavet Mascot (CDC Technologies, Oxford, Conn.). Manual differentials were performed on Wright-Giemsa-stained (Hema-Tek 1000, Bayer, Elkhart, Ind.) blood smears or spleen and bone marrow cell cytospin preparations (Shandon, Pittsburgh, Pa.).

[1] = tested on: CFU-GM progenitor cells in peripheral blood; test: Peripheral blood progenitor cell (PBSC) mobilization, CFU-GM assay of PBMC; assay type: in vivo; settings: BALB/c mice, mean (X)
Description: Experimental procedures are as previously described (Pelus, L. M., et al., Blood (2001) 97:1534-1542; Blood (2004) 103:110-119). […] Mobilization experiments were performed in BALB/c mice (3 mice group). For mobilization with AMD3100 or GROβ alone, PBSC mobilization was quantified at the peak of mobilization determined for either agent in previous experiments. Thus, PBSC mobilization was quantified at 15 mins following an s.c. injection of 2.5 mg/kg GROβ and at 1 hour following an s.c. injection of 5 mg/kg AMD3100. In the combination experiment, PBSC mobilization was quantitated at 5, 15, 30, 60 and 150 minutes after a single subcutaneous injection of 2.5 mg/kg GROβ (R & D Systems) in saline and 5 mg/kg AMD3100. The compounds were injected separately and simultaneously at different s.c. sites. Injections were scheduled so that control and mobilized mice were evaluated at the same time in every experiment. Mice were killed by CO2 asphyxiation and blood was obtained by cardiac puncture using syringes coated with EDTA (ethylenediaminetetra acetic acid). PBMC's were obtained by separation of peripheral blood (0.4 mL) on Lympholyte-M (Cedarlane Labs, Hornby, ON, Canada). Complete blood counts (CBC's) were performed on a Hemavet Mascot (CDC Technologies, Oxford, Conn.). Manual differentials were performed on Wright-Giemsa-stained (Hema-Tek 1000, Bayer, Elkhart, Ind.) blood smears or spleen and bone marrow cell cytospin preparations (Shandon, Pittsburgh, Pa.). CFU-GM Assay PBMC's were assayed for CFU-GM in McCoy 5A media with 15% heat-inactivated fetal bovine serum (Hyclone Sterile Systems, Logan, Utah) and 0.3% agar (Difco Laboratories, Detroit, Mich.). PBMC's were cultured at 2×10^5/mL. CFU-GM were stimulated with 10 ng/mL recombinant murine GM-CSF (rmGM-CSF), 10 ng/mL rmIL-1α, and 50 ng/mL stem cell factor (SCF). Triplicate cultures from individual animals were incubated at 37° C., 5% CO2, 5% O2 in air for 7 days. Total CFU-GM/mL blood was determined by multiplying CFU frequencies by PBMC/ml blood corrected for white blood cell (WBC) recovery after Lympholyte-M separation.

“GROβ: chemokine GROβ (R & D Systems) in saline; acts via the CXCR2 receptor” was tested, and the “% LYMPH” value (peripheral blood cells; 15 min after s.c. injection) was 65.19%, the “% MONO” value (peripheral blood cells; 15 min after s.c. injection) was 5.65% and the “% PMN” value (peripheral blood cells; 15 min after s.c. injection) was 27.35%. For the same compound, the LYMPH (peripheral blood cells; 15 min after s.c. injection) was 7.76, the MONO (peripheral blood cells; 15 min after s.c. injection) was 0.67 and the PMN (peripheral blood cells; 15 min after s.c. injection) was 3.34. For the same compound, the WBC (peripheral blood cells; 15 min after s.c. injection) was 11.98, the CFU-GM/ml ([1]; 15 min after s.c. injection (GROβ 2.5 mg/kg, AMD3100 5 mg/kg)) was 2505.54 CFU-GM/ml and the “CFU-GM Mobilized Above Control” value ([1]; 15 min after s.c. injection) was 2383.50. The “Fold Inc (CFU-GM/ml over PBS control)” value ([1]; 15 min after s.c. injection) was 20.53.

With `c1cc(CN2CCCNCCNCCCNCC2)ccc1CN1CCCNCCNCCCNCC1` [AMD3100, 1,1′-[1,4-phenylene-bis(methylene)]-bis-1,4,8,11-tetraazacyclotetradecane] the “% LYMPH” value (peripheral blood cells; 60 min after s.c. injection) was 59.17%, the “% MONO” value (peripheral blood cells; 60 min after s.c. injection) was 3.27% and the “% PMN” value (peripheral blood cells; 60 min after s.c. injection) was 36.61%. For the same compound, the LYMPH (peripheral blood cells; 60 min after s.c. injection) was 8.54, the MONO (peripheral blood cells; 60 min after s.c. injection) was 0.47 and the PMN (peripheral blood cells; 60 min after s.c. injection) was 5.35. For the same compound, the WBC (peripheral blood cells; 60 min after s.c. injection) was 14.49, the CFU-GM/ml ([1]; 60 min after s.c. injection (GROβ 2.5 mg/kg, AMD3100 5 mg/kg)) was 698.19 CFU-GM/ml and the “CFU-GM Mobilized Above Control” value ([1]; 60 min after s.c. injection) was 576.15. For the same compound, the “Fold Inc (CFU-GM/ml over PBS control)” value ([1]; 60 min after s.c. injection) was 5.72.
